Values of other authors in patent publication US20210255187A1, “METHOD FOR PREDICTING THE EFFECTIVENESS OF TREATMENTS FOR CANCER PATIENTS” (University College Dublin, National University of Ireland, …, priority 2018, published 2021).

Test system: breast cancer cells

COc1cccc2c1C(=O)c1c(O)c3c(c(O)c1C2=O)C[C@@](O)(C(=O)CO)C[C@@H]3O[C@H]1C[C@H](N)[C@H](O)[C@H](C)O1 [doxorubicin]
AKT phosphorylation in response to doxorubicin: not changing
